Reference: article PMC11249953, “c-KIT inhibitors reduce pathology and improve behavior in the Tg(SwDI) model of Alzheimer’s disease” (Life Science Alliance, 2024)
Values joined by “and” are separate entries in the source; they are usually repeats but may differ in a detail not shown here. Equal entries are not always repeated.

Columns and labels:
PDGFRb = target: T1, PDGFRb (Homo sapiens, UniProt P09619); experiment: KINOMEscan competition binding, PDGFRb; conditions: 10 µM compound
T1 construct: DNA label for qPCR read-out (T7 phage fusion or DNA tag); purchased Eurofins DiscoverX Corporation; host or cells: T7 phage in E. coli (BL21-derived) or HEK-293
T1 sequence (P09619 33-1106): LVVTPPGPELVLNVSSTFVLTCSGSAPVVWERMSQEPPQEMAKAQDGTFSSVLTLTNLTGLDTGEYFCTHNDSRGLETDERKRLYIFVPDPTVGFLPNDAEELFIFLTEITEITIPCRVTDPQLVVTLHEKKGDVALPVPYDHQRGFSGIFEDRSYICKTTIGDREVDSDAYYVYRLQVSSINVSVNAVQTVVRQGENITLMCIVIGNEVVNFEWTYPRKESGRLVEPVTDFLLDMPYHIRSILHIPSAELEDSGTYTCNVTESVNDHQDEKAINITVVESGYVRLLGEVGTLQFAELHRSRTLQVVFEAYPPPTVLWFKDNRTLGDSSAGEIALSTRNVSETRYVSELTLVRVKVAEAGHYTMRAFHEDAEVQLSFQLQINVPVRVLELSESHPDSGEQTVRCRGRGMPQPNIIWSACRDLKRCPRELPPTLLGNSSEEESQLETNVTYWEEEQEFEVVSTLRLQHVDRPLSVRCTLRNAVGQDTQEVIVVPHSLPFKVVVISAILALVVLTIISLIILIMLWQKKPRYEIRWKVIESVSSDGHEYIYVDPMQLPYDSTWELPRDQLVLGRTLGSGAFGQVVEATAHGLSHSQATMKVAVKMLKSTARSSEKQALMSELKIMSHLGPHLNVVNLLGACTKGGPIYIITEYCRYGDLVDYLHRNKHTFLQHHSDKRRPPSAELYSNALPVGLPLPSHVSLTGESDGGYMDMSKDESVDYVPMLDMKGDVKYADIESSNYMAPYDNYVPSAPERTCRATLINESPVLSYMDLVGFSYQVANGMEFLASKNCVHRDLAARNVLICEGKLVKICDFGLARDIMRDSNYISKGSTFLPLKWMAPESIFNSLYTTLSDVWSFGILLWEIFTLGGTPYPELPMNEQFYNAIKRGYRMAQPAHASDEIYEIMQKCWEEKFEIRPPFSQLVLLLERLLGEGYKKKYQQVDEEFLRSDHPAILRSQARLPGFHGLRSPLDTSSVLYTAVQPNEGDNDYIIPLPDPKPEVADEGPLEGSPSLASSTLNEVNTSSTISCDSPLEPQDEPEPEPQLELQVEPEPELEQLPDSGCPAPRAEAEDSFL
Procedure: (§1) The KINOMEscan screening platform (Eurofins DiscoverX Corporation) was performed using active site-directed competition binding assay to quantitatively measure interactions between BK40143 and BK40197 and more than 450 human kinases and disease relevant mutant variants. […] Screening “hits” are identified by measuring the amount of kinase captured in test (BK40143 and BK40197) versus control samples by using a quantitative and ultra-sensitive qRT-PCR method that detects the associated DNA label. BK40143 and BK40197 were screened at 10 µM concentration, and results for primary screen binding interactions were reported as “% Ctrl” (POC), where lower numbers indicate stronger hits and calculated as follows: [test compound signal−positive control signal/negative control signal−positive control signal]×100
(§2) negative control = DMSO (100% Ctrl)
(§3) positive control = control compound (0% Ctrl)
(§4) Based on screening data from of profiled compounds, a proportional relationship between primary screening results and corresponding compound/target affinities can be described as binding constants (Kd values) for the indicated ranges of POC values with tighter binding (higher affinity) interactions associated with lower POC values and weaker binding (lower affinity) associated with higher POC values. Briefly, kinase-tagged T7 phage strains were grown in parallel in 24-well blocks in an E. coli host derived from the BL21 strain. E. coli were grown to log-phase and infected with T7 phage from a frozen stock (multiplicity of infection = 0.4) and incubated with shaking at 32°C until lysis (90–150 min). The lysates were centrifuged (6,000g) and filtered (0.2 μm) to remove cell debris. The remaining kinases were produced in HEK-293 cells and subsequently tagged with DNA for qRT-PCR detection. Streptavidin-coated magnetic beads were treated with biotinylated small molecule ligands for 30 min at RT to generate affinity resins for kinase assays. The liganded beads were blocked with excess biotin and washed with blocking buffer (1% BSA, 0.05% Tween 20, 1 mM DTT; SeaBlock [Pierce]) to remove unbound ligand and to reduce non-specific phage binding. Binding reactions were assembled by combining kinases, liganded affinity beads, and test compounds in 1x binding buffer (20% 0.17x PBS, 0.05% Tween 20, 6 mM DTT; SeaBlock). Test compounds were prepared as 100x stocks in 100% DMSO and directly diluted into the assay. All reactions were performed in polypropylene 384-well plates in a final volume of 0.02 ml. The assay plates were incubated at RT with shaking for 1 h and the affinity beads were washed with wash buffer (1x PBS, 0.05% Tween 20). […] The kinase concentration in the eluates was measured by qRT-PCR.

MAP4K4 = target: T2, MAP4K4 (Homo sapiens, UniProt O95819); experiment: KINOMEscan competition binding, MAP4K4; conditions: 10 µM compound
T2 construct: DNA label for qPCR read-out (T7 phage fusion or DNA tag); purchased Eurofins DiscoverX Corporation; host or cells: T7 phage in E. coli (BL21-derived) or HEK-293
T2 sequence (O95819 whole entry, the tested form may be a part): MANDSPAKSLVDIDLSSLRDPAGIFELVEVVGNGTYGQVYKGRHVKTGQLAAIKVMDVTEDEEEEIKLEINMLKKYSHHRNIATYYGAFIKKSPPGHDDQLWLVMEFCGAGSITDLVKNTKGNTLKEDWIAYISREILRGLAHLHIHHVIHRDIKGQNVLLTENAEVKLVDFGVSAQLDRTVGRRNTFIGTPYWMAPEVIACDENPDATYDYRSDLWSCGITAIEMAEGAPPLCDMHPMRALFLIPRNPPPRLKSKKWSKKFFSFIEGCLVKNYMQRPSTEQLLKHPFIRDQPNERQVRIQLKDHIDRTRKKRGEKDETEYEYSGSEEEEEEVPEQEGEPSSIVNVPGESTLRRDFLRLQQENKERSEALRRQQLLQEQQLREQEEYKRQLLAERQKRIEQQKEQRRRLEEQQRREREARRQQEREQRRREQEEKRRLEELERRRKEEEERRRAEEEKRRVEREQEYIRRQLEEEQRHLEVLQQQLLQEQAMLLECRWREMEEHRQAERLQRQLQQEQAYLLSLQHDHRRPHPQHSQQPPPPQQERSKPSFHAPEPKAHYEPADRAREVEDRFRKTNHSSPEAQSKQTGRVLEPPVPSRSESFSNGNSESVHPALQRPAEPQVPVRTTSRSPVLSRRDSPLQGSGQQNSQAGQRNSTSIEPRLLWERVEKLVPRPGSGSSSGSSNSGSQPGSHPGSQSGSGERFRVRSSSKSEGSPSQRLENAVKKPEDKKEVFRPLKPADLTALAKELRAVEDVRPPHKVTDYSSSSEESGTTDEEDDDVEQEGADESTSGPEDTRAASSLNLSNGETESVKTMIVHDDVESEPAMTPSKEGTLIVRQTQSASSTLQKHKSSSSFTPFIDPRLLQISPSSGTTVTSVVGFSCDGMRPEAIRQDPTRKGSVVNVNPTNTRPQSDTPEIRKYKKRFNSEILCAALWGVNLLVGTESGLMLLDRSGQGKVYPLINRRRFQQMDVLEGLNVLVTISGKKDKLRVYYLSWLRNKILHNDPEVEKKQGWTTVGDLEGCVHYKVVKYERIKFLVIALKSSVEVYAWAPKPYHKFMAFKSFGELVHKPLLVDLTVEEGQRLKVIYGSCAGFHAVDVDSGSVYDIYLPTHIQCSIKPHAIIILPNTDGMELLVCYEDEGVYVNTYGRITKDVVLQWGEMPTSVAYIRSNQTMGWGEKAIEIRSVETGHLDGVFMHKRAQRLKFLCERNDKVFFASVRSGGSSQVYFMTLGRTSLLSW
Procedure: as §1, §2, §3, §4

FYN = target: T3, FYN (Homo sapiens, UniProt P06241); experiment: KINOMEscan competition binding, FYN; conditions: 10 µM compound
T3 construct: DNA label for qPCR read-out (T7 phage fusion or DNA tag); purchased Eurofins DiscoverX Corporation; host or cells: T7 phage in E. coli (BL21-derived) or HEK-293
T3 sequence (P06241 whole entry, the tested form may be a part): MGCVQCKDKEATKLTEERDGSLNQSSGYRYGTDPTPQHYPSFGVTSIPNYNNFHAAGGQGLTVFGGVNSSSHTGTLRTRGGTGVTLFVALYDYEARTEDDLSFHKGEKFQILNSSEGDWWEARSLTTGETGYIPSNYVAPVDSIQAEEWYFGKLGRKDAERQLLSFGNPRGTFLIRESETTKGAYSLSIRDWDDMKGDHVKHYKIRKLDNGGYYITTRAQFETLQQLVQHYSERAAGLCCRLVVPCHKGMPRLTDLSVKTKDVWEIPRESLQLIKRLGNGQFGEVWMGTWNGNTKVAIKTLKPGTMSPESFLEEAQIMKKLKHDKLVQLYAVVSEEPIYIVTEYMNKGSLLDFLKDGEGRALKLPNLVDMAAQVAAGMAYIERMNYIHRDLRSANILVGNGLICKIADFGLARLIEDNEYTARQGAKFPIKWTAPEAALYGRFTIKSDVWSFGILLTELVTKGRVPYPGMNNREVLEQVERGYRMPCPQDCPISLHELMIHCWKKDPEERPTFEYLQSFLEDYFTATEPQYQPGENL
Procedure: as §1, §2, §3, §4

RIOK3 = target: T4, RIOK3 (Homo sapiens, UniProt O14730); experiment: KINOMEscan competition binding, RIOK3; conditions: 10 µM compound
T4 construct: DNA label for qPCR read-out (T7 phage fusion or DNA tag); purchased Eurofins DiscoverX Corporation; host or cells: T7 phage in E. coli (BL21-derived) or HEK-293
T4 sequence (O14730 1-519): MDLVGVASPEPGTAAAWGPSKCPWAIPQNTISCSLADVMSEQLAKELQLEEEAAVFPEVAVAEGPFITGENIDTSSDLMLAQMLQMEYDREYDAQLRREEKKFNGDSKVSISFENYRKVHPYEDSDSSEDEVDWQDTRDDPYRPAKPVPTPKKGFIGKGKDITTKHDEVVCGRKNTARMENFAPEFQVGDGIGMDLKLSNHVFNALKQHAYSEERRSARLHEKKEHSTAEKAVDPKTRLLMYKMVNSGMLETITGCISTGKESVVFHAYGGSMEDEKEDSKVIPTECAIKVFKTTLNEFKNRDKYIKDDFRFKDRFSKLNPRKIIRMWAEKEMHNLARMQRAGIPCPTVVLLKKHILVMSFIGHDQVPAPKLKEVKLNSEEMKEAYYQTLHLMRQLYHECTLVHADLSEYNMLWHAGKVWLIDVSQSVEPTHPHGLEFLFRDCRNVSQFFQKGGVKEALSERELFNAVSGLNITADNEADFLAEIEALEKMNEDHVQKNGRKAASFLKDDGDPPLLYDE
Procedure: as §1, §2, §3, §4

TgAPP mice = experiment: Morris water maze, TgAPP mice; assay type: in vivo, mouse; parameters: Platform Distance: unit not given beside the values; Total Distance / Quad Time / Quad Distance / Trial 1 D4 / Trial 1 D4 AVG: unit not given here
Procedure: The Morris water maze was performed using a water bath 6 ft in diameter and filled with roughly 1 ft of water. The maze was divided into four quadrants, each with a visual stimulus positioned on the wall of the maze in the center of the quadrant arc. A clear platform was placed in one quadrant just beneath the surface of the water. Mice were then placed in a random non-platform quadrant and allowed to swim freely for 60 s (time was stopped and recorded if the mouse found the platform) before being placed on the platform for 15 s and returned to their cage. This was repeated for each of the three quadrants each day for 4 d. On the 5th d, the platform was removed and mice were placed in the quadrant opposite of where the platform had been and allowed to swim freely for 1 min before being returned to their cage. Time spent in the correct quadrant, latency to the platform, number of platform entries, and number of quadrant entries were recorded.

[1] = MWM Probe, single animal values, listed as 197
[2] = MWM Probe, single animal values, listed as 197, in s (unit assumed)
[3] = MWM training, Day 1, single animal values, listed as 197
[4] = MWM training, Day 2, single animal values, listed as 197
[5] = MWM training, Day 3, single animal values, listed as 197
[6] = MWM training, Day 4, single animal values, listed as 197

Cc1cccc(-c2cc3nccc(N4CCOCC4)c3s2)c1 [BK40197]
inhibition at 10 µM (PDGFRb): 98.7% | remaining binding at 10 µM (PDGFRb; lower = stronger binding, read-out: PDGFRb %Ctrl @ 10000nM (POC)): 1.3% | inhibition at 10 µM (MAP4K4): 60% | remaining binding at 10 µM (MAP4K4; lower = stronger binding, read-out: MAP4K4 %Ctrl @ 10000nM (POC)): 40% | inhibition at 10 µM (FYN): 44% | remaining binding at 10 µM (FYN; lower = stronger binding, read-out: FYN %Ctrl @ 10000nM): 56% | inhibition at 10 µM (RIOK3): 95.2% | remaining binding at 10 µM (RIOK3; lower = stronger binding, read-out: RIOK3 %Ctrl @ 10000nM (POC)): 4.8% | Platform Distance (TgAPP mice; [1]): 0 and 0.487 and 0.423 and 1.393 and 0.128 and 0.196 and 0.299 and 0.391 | Platform Entries (TgAPP mice; [1]): 0 and 3 and 4 and 8 and 1 and 2 | Quad Distance (TgAPP mice; [1]): 2.071 and 3.416 and 4.643 and 7.432 and 1.451 and 3.963 and 3.288 and 3.437 and 3.953 | Quad Distance/Total (TgAPP mice; [1]): 0.09759 and 0.2373 and 0.3151 and 0.3933 and 0.09964 and 0.2157 and 0.2602 and 0.2506 and 0.2518 | Quad Entries (TgAPP mice; [1]): 3 and 7 and 8 and 16 and 5 and 6 and 4 | Quad Time (TgAPP mice; [1]): 9.1 and 12.9 and 22.8 and 25.1 and 6.9 and 11.1 and 16.2 and 14.3 and 14.6 | Total Distance (TgAPP mice; [1]): 21.221 and 14.396 and 14.736 and 18.898 and 14.562 and 18.377 and 12.635 and 13.714 and 15.701 | Platform Latency (TgAPP mice; MWM Probe, single animal values, listed as 197, in s): 60 and 2.1 and 31.3 and 11.1 and 21.2 and 56 and 26.7 and 7.2 | Platform Time (TgAPP mice; [2]): 0 and 1.9 and 1.5 and 5.2 and 0.3 and 0.7 and 1 and 1.4 | Quad Latency (TgAPP mice; [2]): 4.7 and 3 and 16.9 and 2.3 and 4.3 and 3.9 and 21.1 and 6.8 and 3.2 | Quad Time per Entry (TgAPP mice; [2]): 3.033 and 1.843 and 2.85 and 1.569 and 1.38 and 1.85 and 4.05 and 3.575 and 1.825 | Training Day 1 AVG (TgAPP mice; MWM training, Day 1, group average): 45.4333 | Training Day 1, mean of the three trials per animal (TgAPP mice; MWM training, Day 1, per-animal mean, listed as 197): 43.78 and 60 and 43.62 and 54.8167 and 46.8067 and 44.7133 and 26.0367 and 29.1267 | Training Day 1, trial 1 (TgAPP mice; [3]): 60 and 47.21 and 31.28 and 46.64 | Training Day 1, trial 2 (TgAPP mice; [3]): 11.34 and 60 and 54.03 and 25.14 and 29.4 | Training Day 1, trial 4 (TgAPP mice; [3]): 60 and 23.65 and 44.45 and 26.39 and 14.14 and 21.69 and 11.34 | Training Day 2 AVG (TgAPP mice; MWM training, Day 2, group average): 47.2204 | Training Day 2, mean of the three trials per animal (TgAPP mice; MWM training, Day 2, per-animal mean, listed as 197): 13.1033 and 49.5833 and 60 and 36.82 and 56.3433 and 52.21 and 40.7533 and 56.17 | Training Day 2, trial 1 (TgAPP mice; [4]): 7.57 and 60 | Training Day 2, trial 2 (TgAPP mice; [4]): 5.62 and 60 and 36.25 and 49.03 and 36.63 and 55.69 | Training Day 2, trial 4 (TgAPP mice; [4]): 26.12 and 28.75 and 60 and 14.21 and 6.57 and 48.51 | Training Day 3 AVG (TgAPP mice; MWM training, Day 3, group average): 28.2515 | Training Day 3, mean of the three trials per animal (TgAPP mice; MWM training, Day 3, per-animal mean, listed as 197): 11.39 and 34.5433 and 18.6367 and 42.7367 and 27.2267 and 23.27 and 38.7467 and 28.4767 and 29.2367 | Training Day 3, trial 1 (TgAPP mice; [5]): 9.97 and 10.56 and 13.44 and 8.21 and 13.9 and 27.12 and 60 and 23.21 and 11.51 | Training Day 3, trial 2 (TgAPP mice; [5]): 6.2 and 40.75 and 11.22 and 60 and 7.78 and 16.82 and 30.27 and 28.53 and 34.18 | Training Day 3, trial 4 (TgAPP mice; [5]): 18 and 52.32 and 31.25 and 60 and 25.87 and 25.97 and 33.69 and 42.02 | Trial 1 D4 AVG (TgAPP mice; MWM training, Day 4, Trial 1, group average): 16.0867 | Trial 1 D4 (TgAPP mice; MWM training, Day 4, Trial 1, single animal values listed by group, listed as 197): 29.9 and 18.58 and 17.08 and 9.97 and 12.28 and 11 and 6.82 and 20 and 19.15 | Training Day 4 AVG (TgAPP mice; MWM training, Day 4, group average): 27.9559 | Training Day 4, mean of the three trials per animal (TgAPP mice; MWM training, Day 4, per-animal mean, listed as 197): 18.2367 and 14.52 and 22.8833 and 26.0267 and 20.9367 and 33.48 and 29.6433 and 39.9233 and 45.9533 | Training Day 4, trial 1 (TgAPP mice; [6]): 33 and 13.59 and 44.97 and 60 and 41.71 and 20.44 and 36.65 | Training Day 4, trial 2 (TgAPP mice; [6]): 17.08 and 9.97 and 12.28 and 11 and 6.82 and 20 and 19.15 and 29.9 and 18.58 | Training Day 4, trial 4 (TgAPP mice; [6]): 4.63 and 20 and 11.4 and 7.08 and 14.28 and 60 and 9.78 and 53.22 and 59.28 | Morris water maze training trials: time to locate the platform (TgAPP mice; TgAPP mice, BK40143 5 mg/kg, BK40197 45 mg/kg IP, 6 wk, vs DMSO): locate the platform significantly quicker on later training trials
